Data as given in US20160022605A1, “METHODS FOR REDUCING MICROSATELLITE INSTABILITY INDUCED BY CHEMOTHERAPY AND METHODS FOR SCREENING ANTIOXIDANTS THAT SUPPRESS DRUG-INDUCED MICROSATELLITE INSTABILITY WHILE ENHANCING THE CYTOTOXICITY OF CHEMOTHERAPEUTIC AGENTS” (priority 2014, published 2016).
Entries after “also recorded” stand apart in the source; their conditions may differ.

Key:
HCT116-(CA)13 cells [1] = experiment: REDOX library screen by high-content microscopy (MSI frequency and cell numbers); type: cell-based, human; conditions: 1 μM oxaliplatin, additional concentrations, 3-day co-treatment, 3-day recovery
Experimental: The REDOX library (Cat# BML-2835, ENZO, USA) is composed of 84 compounds that were supplied at 10 mM in DMSO. HCT116-(CA)13 cells were seeded at 1×10^4 cells per well in 96-well glass plates containing 100 μl growth medium. One day after seeding, the cells were co-treated with 1 μM oxaliplatin and an antioxidant at specified concentrations in triplicate for three days, followed by a 3-day recovery in fresh growth medium without the drug and antioxidants.

HCT116-(CA)13 cells [2] = experiment: Frameshift mutation (MSI) analysis by flow cytometry with dual-fluorescent reporter; conditions: for mutation frequency: 3-day treatment, 3-day recovery, untreated 0.46±0.04%; for MSI induction (in words): HCT116 derivatives, single drug
Experimental: (§2) Specified cells were seeded at 1×10^4 or 1×10^5 cells per well in 96-well or 12-well plates respectively. One day after seeding, the cells were treated in triplicates for 3 days with a tested drug in the presence or absence of an antioxidant at indicated concentrations. Subsequently, the drug and/or antioxidant were removed and cells were washed and recovered in fresh growth medium for 3 days before being subjected to analyses. […] On the other hand, PBS was used to make 0.5 M vitamin C stock, saline for making 0.5 M NAC and 0.1 M GSH stocks, and DMSO for making 10 mM curcumin and 10 mM eugenol. Prior to the experiments, PBS was used for diluting the drugs and antioxidants and the final solvent concentration was kept the same for all tested compounds, including untreated controls.
At the end of treatment, adherent cells in 12-well plates were trypsinized and resuspended in PBS containing 1 mM EDTA, and filtered through a 40-μm strainer, and then subjected to flow cytometry (Quanta™ SC-MPL, Beckman Coulter). […] The frequency of frameshift mutations is expressed as the percentage of DsRed^+GFP^+ subpopulation in the GFP^+ cell population.

HCT116 cells [3] = experiment: Intracellular ROS assay (DCDHF-DA, flow cytometry); type: cell-based, human; conditions: 3-day treatment, 3-day recovery; 10 μM 5-FU, 25 nM methotrexate, 50 μM CCNU, 1 μM oxaliplatin
Experimental: Intracellular ROS levels were measured using an oxidation-sensitive 2′,7′-dichlorodihydrofluorescein diacetate (DCDHF-DA) probe, which can be oxidized to the fluorescent 2′,7′-dichloro-fluorescein (DCF) product. After treatment, HCT116 derivatives in 12-well plates were harvested, washed and resuspended in PBS containing 10 μM DCDHF-DA, followed by 30-min incubation at 37° C. in the dark before being subjected to flow cytometry (Quanta SC-MPL). For a ROS curve of H2O2, 2×10^5 HCT116 derivatives were detached, washed, and incubated with 10 μM DCDHF-DA for 30 min at 37° C., followed by flow cytometric analysis after 30-min exposure to different concentrations of H2O2. After excluding cell debris on the basis of electronic volume and side scatter, the fluorescence intensity of DCF was measured in fluorescence channel 1 of the flow cytometer (λex: 488 nm; λem: 525 nm). The ROS level is expressed as the mean fluorescence intensity (MFI) of DCF from 10,000 cells per sample.

HCT116 cells [4] = experiment: Fluoresceinated PCR-based assay of endogenous microsatellites (Bethesda panel); type: cell-based, human; conditions: 3-day recovery
Experimental: Genomic DNA was isolated from HCT116 derivatives in 12-well plates with EasyPure Genomic DNA mini kit. The isolated DNA were amplified with fluoresceinated primers specific for the Bethesda panel of microsatellite [Boland et al., 1998] and selected coding microsatellites as described previously [Li et al., 2014]. Fluoresceinated PCR products were analyzed by the ABI 310 genetic analyzer, and electropherograms were generated with GeneScan Collection software (ABI).

HCT116+chr3-(CA)13 cells = experiment: MSI analysis by high-content microscopy in MMR-proficient cells; type: cell-based, human; conditions: 3-day treatment (50 μM CCNU, 5 μM etoposide, 25 nM vinblastine), 3-day recovery; base line 0.35%
Experimental: as §2

HCT116-(CA)13 cells [5] = conditions: for suppression of methotrexate-induced MSI: 25 nM methotrexate with 2.5 mM NAC, 250 μM vitamin C or 1.5 μM curcumin; for suppression of methotrexate-induced MSI / suppression of CCNU-induced MSI: 5 mM GSH; for suppression of CCNU-induced MSI: 50 μM CCNU with 2.5 mM NAC, 250 μM vitamin C, 1.5 μM curcumin or 150 μM eugenol
Experimental: After treatment, HCT116-(CA)13 cells in 96-well glass plates (Corning-Costar®) were fixed with 4% paraformaldehyde and nuclei were stained with 1 μg/ml Hoechst 33258. Fluorescent images of the cells were acquired at 100× magnification by ImageXpress^Micro system (Molecular Devices) and analyzed with MetaXpress® V3.1 software as described previously [Li et al., 2014]. The frequency of frameshift mutations of the (CA)13 microsatellite is expressed as the percentage of the DsRed^+GFP^+Hoechst^+ subpopulation in the GFP^+Hoechst^+ population.

HCT116-(CA)13 cells [6] = experiment: Cell viability (MTT assay) with drug and antioxidant co-treatment; conditions: for effect on methotrexate-mediated cytotoxicity (in words): 25 nM methotrexate with NAC, GSH or vitamin C
Experimental: (§1) Cell viability was determined by the MTT assay. Briefly, the optical density of colored formazan converted from MTT by viable cells was determined as previously described [Chang et al., 2002] at 595 nm with an ELISA reader (Thermo Labsystems). Cell viability is expressed as the optical density value of drug-treated cells relative to that of solvent-treated cells, after subtracting the background from the medium.

HCT116+chr3 cells = experiment: MTT assay in MMR-proficient cells; conditions: MMR-proficient HCT116+chr3, 1 μM oxaliplatin with 2-10 μM antioxidant, 3-day co-treatment
Experimental: as §1

HCT116 cells [7] = experiment: MTT assay, oxaliplatin co-treatment in MMR-deficient cells; conditions: MMR-deficient HCT116, 1 μM oxaliplatin with 2-10 μM antioxidant, 3-day co-treatment
Experimental: as §1

[8] = 3-day treatment, 10 μM 5-FU, 5 μM etoposide, 25 nM vinblastine, 50 μM CCNU, 25 nM methotrexate, 1 μM oxaliplatin
[9] = 1-day treatment, 100 μM CCNU or 100 nM methotrexate
[10] = 5 μM etoposide with 250 μM vitamin C

N#CC(=Cc1ccc(O)c(O)c1)C(=O)OC/C=C/c1ccccc1 (stereo in doubt) [CDC, [(E)-3-phenylprop-2-enyl] (Z)-2-cyano-3-(3,4-dihydroxyphenyl)prop-2-enoate]
outcome of secondary screen: oxaliplatin-induced MSI and oxaliplatin-mediated cytotoxicity (HCT116-(CA)13 cells [1]): most promising antioxidants

O=c1[nH]cc(F)c(=O)[nH]1 [5-FU, 5-fluoro-1H-pyrimidine-2,4-dione]
mutation frequency (HCT116-(CA)13 cells [2]; 2.5 μM): 5.91±0.49% | mutation frequency (HCT116-(CA)13 cells [2]; 5 μM): 6.37±0.96% | mutation frequency (HCT116-(CA)13 cells [2]; 10 μM): 8.05±2.01% | susceptibility of (CA)13 microsatellite to drug-induced mutations compared to (N)16 random sequence (HCT116-(CA)13 cells [2]; 5-FU 2.5-10 μM, HCT116-(CA)13 vs HCT116-(N)16): 1.2-2.8 fold | MSI induction (in words) (HCT116-(CA)13 cells [2]): induced MSI | intracellular ROS levels (HCT116 cells [3]): increased intracellular ROS levels | instability of Bethesda panel microsatellite markers (HCT116 cells [4]; [8]): induced the instability of the BAT25 microsatellite

O=NN(CCCl)C(=O)NC1CCCCC1 [CCNU, 1-(2-chloroethyl)-3-cyclohexyl-1-nitrosourea]
MSI induction (in words) (HCT116-(CA)13 cells [2]): induced MSI | intracellular ROS levels (HCT116 cells [3]): generated the highest ROS level | MSI frequency (HCT116+chr3-(CA)13 cells): 1.26% | alteration of D5S346 (HCT116 cells [4]; 100 μM CCNU, 1-day treatment): 1-bp insertion in a non-repetitive region of D5S346 | instability of Bethesda panel microsatellite markers (HCT116 cells [4]; [9]): caused the instability of BAT25 and/or BAT26 microsatellites | instability of Bethesda panel microsatellite markers (HCT116 cells [4]; [8]): failed to detect alterations

N[C@@H](CCC(=O)N[C@@H](CS)C(=O)NCC(=O)O)C(=O)O [GSH, glutathione]
suppression of methotrexate-induced MSI (HCT116-(CA)13 cells [5]): 13%

CC(=O)N[C@@H](CS)C(=O)O [NAC, N-acetylcysteine]
suppression of methotrexate-induced MSI (HCT116-(CA)13 cells [5]): 34% | effect on methotrexate-mediated cytotoxicity (in words) (HCT116-(CA)13 cells [6]): without affecting drug cytotoxicity | effect on oxaliplatin-mediated cytotoxicity (in words) (HCT116-(CA)13 cells [6]; 1 μM oxaliplatin with 2.5 mM NAC, 5 mM GSH or 150 μM eugenol): totally abolished | decrease of CCNU-mediated cytotoxicity (HCT116-(CA)13 cells [6]; 50 μM CCNU with 2.5 mM NAC or 5 mM GSH): approximately 25%

O=c1cc(-c2ccccc2)oc2cc(O)c(O)c(O)c12 [baicalein, 5,6,7-trihydroxy-2-phenylchromen-4-one]
outcome of secondary screen: oxaliplatin-induced MSI and oxaliplatin-mediated cytotoxicity (HCT116-(CA)13 cells [1]): most promising antioxidants

Cc1cc(C2CCCCC2)n(O)c(=O)c1 [ciclopirox ethanolamine, 2-aminoethanol;6-cyclohexyl-1-hydroxy-4-methylpyridin-2-one]
outcome of secondary screen: oxaliplatin-induced MSI and oxaliplatin-mediated cytotoxicity (HCT116-(CA)13 cells [1]): most promising antioxidants

COc1cc(/C=C/C(=O)CC(=O)/C=C/c2ccc(O)c(OC)c2)ccc1O [curcumin, (1E,6E)-1,7-bis(4-hydroxy-3-methoxyphenyl)hepta-1,6-diene-3,5-dione]
effect on oxaliplatin-mediated cytotoxicity (HCT116+chr3 cells): did not show a significant effect | suppression of methotrexate-induced MSI (HCT116-(CA)13 cells [5]): did not affect methotrexate-induced MSI | suppression of CCNU-induced MSI (HCT116-(CA)13 cells [5]): approximately 55% | outcome of secondary screen: oxaliplatin-induced MSI and oxaliplatin-mediated cytotoxicity (HCT116-(CA)13 cells [1]): most promising antioxidants | effect on oxaliplatin-mediated cytotoxicity (HCT116 cells [7]): did not show a significant effect

COc1cc([C@@H]2c3cc4c(cc3[C@@H](O[C@@H]3O[C@@H]5CO[C@@H](C)O[C@H]5[C@H](O)[C@H]3O)[C@H]3COC(=O)[C@H]23)OCO4)cc(OC)c1O [etoposide, (5S,5aR,8aR,9R)-5-[[(2R,4aR,6R,7R,8R,8aS)-7,8-dihydroxy-2-methyl-4,4a,6,7,8,8a-hexahydropyrano[3,2-d][1,3]dioxin-6-yl]oxy]-9-(4-hydroxy-3,5-dimethoxyphenyl)-5a,6,8a,9-tetrahydro-5H-[2]benzofuro[6,5-f][1,3]benzodioxol-8-one]
MSI frequency (HCT116+chr3-(CA)13 cells): 3.74% | instability of Bethesda panel microsatellite markers (HCT116 cells [4]; [8]): destabilized the BAT26 microsatellite

C=CCc1ccc(O)c(OC)c1 [eugenol]
suppression of vinblastine-induced MSI (HCT116-(CA)13 cells [5]; 25 nM vinblastine with 150 μM eugenol): 40% | suppression of CCNU-induced MSI (HCT116-(CA)13 cells [5]): approximately 55%

Cc1cc2c(C(C)C)c(O)c(O)c(C=O)c2c(O)c1-c1c(C)cc2c(C(C)C)c(O)c(O)c(C=O)c2c1O [gossypol, 7-(8-formyl-1,6,7-trihydroxy-3-methyl-5-propan-2-ylnaphthalen-2-yl)-2,3,8-trihydroxy-6-methyl-4-propan-2-ylnaphthalene-1-carbaldehyde]
effect on oxaliplatin-mediated cytotoxicity (HCT116+chr3 cells): enhanced oxaliplatin-mediated cytotoxicity in a concentration-dependent manner | outcome of secondary screen: oxaliplatin-induced MSI and oxaliplatin-mediated cytotoxicity (HCT116-(CA)13 cells [1]): most promising antioxidants; also recorded: suppress oxaliplatin-induced MSI while enhancing oxaliplatin-mediated cytotoxicity | effect on oxaliplatin-mediated cytotoxicity (HCT116 cells [7]): enhanced oxaliplatin-mediated cytotoxicity in a concentration-dependent manner

CN(Cc1cnc2nc(N)nc(N)c2n1)c1ccc(C(=O)N[C@@H](CCC(=O)O)C(=O)O)cc1 [methotrexate, (2S)-2-[[4-[(2,4-diaminopteridin-6-yl)methyl-methylamino]benzoyl]amino] pentanedioic acid]
MSI induction (in words) (HCT116-(CA)13 cells [2]): induced MSI | intracellular ROS levels (HCT116 cells [3]): but not 25 nM methotrexate increased intracellular ROS levels | instability of Bethesda panel microsatellite markers (HCT116 cells [4]; [9]): caused the instability of BAT25 and/or BAT26 microsatellites | instability of Bethesda panel microsatellite markers (HCT116 cells [4]; [8]): failed to detect alterations

CCCCCCCCOC(=O)/C=C/c1ccc(O)c(O)c1 [n-octyl caffeate, Octyl 3-(3,4-dihydroxyphenyl)prop-2-enoate]
outcome of secondary screen: oxaliplatin-induced MSI and oxaliplatin-mediated cytotoxicity (HCT116-(CA)13 cells [1]): most promising antioxidants

N[C@@H]1CCCC[C@H]1N.O=C(O)C(=O)O.[Pt] [oxaliplatin, (1R,2R)-cyclohexane-1,2-diamine;oxalic acid;platinum]
MSI induction (in words) (HCT116-(CA)13 cells [2]): strong MSI-inducing; also recorded: induced MSI | intracellular ROS levels (HCT116 cells [3]): intermediate ROS-generating abilities | instability of Bethesda panel microsatellite markers (HCT116 cells [4]; [8]): alterations of four out of five microsatellite markers

CC[C@]1(O)C[C@@H]2CN(CCc3c([nH]c4ccccc34)[C@@](C(=O)OC)(c3cc4c(cc3OC)N(C)[C@H]3[C@@](O)(C(=O)OC)[C@H](OC(C)=O)[C@]5(CC)C=CCN6CC[C@]43[C@@H]65)C2)C1 [vinblastine]
MSI induction (in words) (HCT116-(CA)13 cells [2]): induced MSI | MSI frequency (HCT116+chr3-(CA)13 cells): 2.10% | instability of Bethesda panel microsatellite markers (HCT116 cells [4]; [8]): destabilized the BAT26 microsatellite

O=C1O[C@H]([C@@H](O)CO)C(O)=C1O [vitamin C]
suppression of methotrexate-induced MSI (HCT116-(CA)13 cells [5]): 12% | suppression of etoposide-induced MSI (HCT116-(CA)13 cells [5]; [10]): ~40% | suppression of CCNU-induced MSI (HCT116-(CA)13 cells [5]): ~24% | effect on methotrexate-mediated cytotoxicity (in words) (HCT116-(CA)13 cells [6]): without affecting drug cytotoxicity | enhancement of etoposide-mediated cytotoxicity (HCT116-(CA)13 cells [6]; [10]): ~10% | effect on CCNU-mediated cytotoxicity (in words) (HCT116-(CA)13 cells [6]; 50 μM CCNU with 250 μM vitamin C): without significantly affecting drug cytotoxicity
